Source: ChEMBL document CHEMBL1148093, “Biological effects of prenylated hydroquinones: structure-activity relationship studies in antimicrobial, brine shrimp, and fish lethality assays” (J Nat Prod, 1994)
Converted amounts (≈) assume the structure as drawn. The source made the active and inactive calls. No cut-off for these calls is given here.

Key:
Gambusia affinis = assay: Toxicity against Gambusia affinis; settings: in vivo
Pseudomonas aeruginosa = assay: Antimicrobial activity against Pseudomonas aeruginosa DSM 1117 after 18 hrs by twofold serial dilution method; assay type: functional, organism-based
Artemia salina = assay: Toxicity against Artemia salina after 24 hrs; settings: in vivo
Candida albicans = assay: Antimicrobial activity against Candida albicans DSM 1665 after 18 hrs by twofold serial dilution method; assay type: functional
Bacillus subtilis = assay: Antimicrobial activity against Bacillus subtilis DSM 347 after 18 hrs by twofold serial dilution method; assay type: functional
Escherichia coli = assay: Antimicrobial activity against Escherichia coli DSM 1103 after 18 hrs by twofold serial dilution method; assay type: functional, organism-based
Micrococcus luteus = assay: Antimicrobial activity against Micrococcus luteus DSM 348 after 18 hrs by twofold serial dilution method; assay type: functional

CC(C)CCCC(C)CCCC(C)CCCC(C)CCCC(C)CCCC(C)CCc1cc(O)ccc1O (configuration not stated)
LC50 (Gambusia affinis): > 100 ppm
Activity (Pseudomonas aeruginosa): inactive
LC50 (Artemia salina): > 10 ppm
MIC (Candida albicans): inactive
MIC (Bacillus subtilis): inactive
Activity (Escherichia coli): inactive
MIC (Micrococcus luteus): inactive

Clc1ccc(COC(Cn2ccnc2)c2ccc(Cl)cc2Cl)c(Cl)c1 (configuration not stated) [MICONAZOLE]
Activity (Pseudomonas aeruginosa): inactive
MIC (Candida albicans; DSM 1665, 18 h): 1.56 µg/mL (≈ 3.75 µM)
Activity (Escherichia coli): inactive

CC(C)=CCC/C(C)=C/CC1=CC(=O)C=CC1=O
LC50 (Gambusia affinis): 0.2 ppm
Activity (Pseudomonas aeruginosa): inactive
LC50 (Artemia salina): 0.05 ppm
MIC (Candida albicans; DSM 1665, 18 h): 25 µg/mL (≈ 102 µM)
MIC (Bacillus subtilis; DSM 347, 18 h): 12.5 µg/mL (≈ 51.2 µM)
Activity (Escherichia coli): inactive
MIC (Micrococcus luteus; DSM 348, 18 h): 12.5 µg/mL (≈ 51.2 µM)

CC(C)=CCC/C(C)=C/CC/C(C)=C/Cc1cc(O)ccc1O
LC50 (Gambusia affinis): 3.3 ppm
Activity (Pseudomonas aeruginosa): inactive
LC50 (Artemia salina): 0.05 ppm
MIC (Candida albicans): inactive
MIC (Bacillus subtilis; DSM 347, 18 h): 1.56 µg/mL (≈ 4.96 µM)
Activity (Escherichia coli): inactive
MIC (Micrococcus luteus; DSM 348, 18 h): 12.5 µg/mL (≈ 39.7 µM)

CC(C)CCCC(C)CCc1cc(O)ccc1O (configuration not stated)
LC50 (Gambusia affinis): 0.15 ppm
Activity (Pseudomonas aeruginosa): inactive
LC50 (Artemia salina): 0.001 ppm
MIC (Candida albicans): inactive
MIC (Bacillus subtilis; DSM 347, 18 h): 6.25 µg/mL (≈ 25 µM)
Activity (Escherichia coli): inactive
MIC (Micrococcus luteus; DSM 348, 18 h): 6.25 µg/mL (≈ 25 µM)

CC(C)=CCc1cc(O)ccc1O [PRENYLHYDROQUINONE]
LC50 (Gambusia affinis): 22.2 ppm
Activity (Pseudomonas aeruginosa): inactive
LC50 (Artemia salina): 0.54 ppm
MIC (Candida albicans; DSM 1665, 18 h): > 50 µg/mL
MIC (Bacillus subtilis; DSM 347, 18 h): > 50 µg/mL
Activity (Escherichia coli): inactive
MIC (Micrococcus luteus; DSM 348, 18 h): 25 µg/mL (≈ 140 µM)

CC(C)=CCC1=CC(=O)C=CC1=O
LC50 (Gambusia affinis): 1.4 ppm
Activity (Pseudomonas aeruginosa): inactive
LC50 (Artemia salina): 0.19 ppm
MIC (Candida albicans; DSM 1665, 18 h): > 50 µg/mL
MIC (Bacillus subtilis; DSM 347, 18 h): 25 µg/mL (≈ 142 µM)
Activity (Escherichia coli): inactive
MIC (Micrococcus luteus; DSM 348, 18 h): 25 µg/mL (≈ 142 µM)

CC(C)=CCC/C(C)=C/CC/C(C)=C/CC/C(C)=C/CC/C(C)=C/CC/C(C)=C/CC/C(C)=C/CC/C(C)=C/Cc1cc(O)ccc1O
LC50 (Gambusia affinis): > 100 ppm
Activity (Pseudomonas aeruginosa): inactive
LC50 (Artemia salina): 0.98 ppm
MIC (Candida albicans): inactive
MIC (Bacillus subtilis): inactive
Activity (Escherichia coli): inactive
MIC (Micrococcus luteus): inactive

CC(C)CCCC(C)CCCC(C)CCCC(C)CCCC(C)CCCC(C)CCCC(C)CCc1cc(O)ccc1O (configuration not stated)
LC50 (Gambusia affinis): > 100 ppm
Activity (Pseudomonas aeruginosa): inactive
LC50 (Artemia salina): > 10 ppm
MIC (Candida albicans): inactive
MIC (Bacillus subtilis): inactive
Activity (Escherichia coli): inactive
MIC (Micrococcus luteus): inactive

CC(C)=CCC/C(C)=C/CC/C(C)=C/CC/C(C)=C/CC/C(C)=C/CC/C(C)=C/CC/C(C)=C/CC/C(C)=C/CC1=CC(=O)C=CC1=O
LC50 (Gambusia affinis): > 100 ppm
Activity (Pseudomonas aeruginosa): inactive
LC50 (Artemia salina): 1.45 ppm
MIC (Candida albicans): inactive
MIC (Bacillus subtilis): inactive
Activity (Escherichia coli): inactive
MIC (Micrococcus luteus): inactive

CC1=CC(=O)C=CC1=O [Cresoquinone]
LC50 (Gambusia affinis): 5.4 ppm
Activity (Pseudomonas aeruginosa): inactive
LC50 (Artemia salina): 1.06 ppm
MIC (Candida albicans; DSM 1665, 18 h): > 50 µg/mL
MIC (Bacillus subtilis; DSM 347, 18 h): 25 µg/mL (≈ 205 µM)
Activity (Escherichia coli): inactive
MIC (Micrococcus luteus; DSM 348, 18 h): > 50 µg/mL

CC(C)=CCC/C(C)=C/CC/C(C)=C/CC/C(C)=C/CC/C(C)=C/CC/C(C)=C/CC1=CC(=O)C=CC1=O
Activity (Pseudomonas aeruginosa): inactive
MIC (Candida albicans): inactive
MIC (Bacillus subtilis): inactive
Activity (Escherichia coli): inactive
MIC (Micrococcus luteus): inactive

CC(C)CCc1cc(O)ccc1O
LC50 (Gambusia affinis): 3.3 ppm
Activity (Pseudomonas aeruginosa): inactive
LC50 (Artemia salina): 0.29 ppm
MIC (Candida albicans; DSM 1665, 18 h): > 50 µg/mL
MIC (Bacillus subtilis; DSM 347, 18 h): 12.5 µg/mL (≈ 69.3 µM)
Activity (Escherichia coli): inactive
MIC (Micrococcus luteus; DSM 348, 18 h): 6.25 µg/mL (≈ 34.7 µM)

CC(C)CCCC(C)CCCC(C)CCc1cc(O)ccc1O (configuration not stated)
LC50 (Gambusia affinis): 21.3 ppm
Activity (Pseudomonas aeruginosa): inactive
LC50 (Artemia salina): 0.02 ppm
MIC (Candida albicans): inactive
MIC (Bacillus subtilis; DSM 347, 18 h): > 50 µg/mL
Activity (Escherichia coli): inactive
MIC (Micrococcus luteus; DSM 348, 18 h): > 50 µg/mL

GENTAMICIN
Activity (Pseudomonas aeruginosa): inactive
MIC (Bacillus subtilis): 0.78 µg/mL
Activity (Escherichia coli): inactive
MIC (Micrococcus luteus): 1.56 µg/mL

CC(C)=CCC/C(C)=C/CC/C(C)=C/CC/C(C)=C/CC/C(C)=C/CC/C(C)=C/CC/C(C)=C/CC1=CC(=O)C=CC1=O
LC50 (Gambusia affinis): > 100 ppm
Activity (Pseudomonas aeruginosa): inactive
LC50 (Artemia salina): 1.26 ppm
MIC (Candida albicans): inactive
MIC (Bacillus subtilis): inactive
Activity (Escherichia coli): inactive
MIC (Micrococcus luteus): inactive

CC(C)=CCC/C(C)=C/CC/C(C)=C/CC/C(C)=C/CC/C(C)=C/CC/C(C)=C/Cc1cc(O)ccc1O
LC50 (Gambusia affinis): > 100 ppm
Activity (Pseudomonas aeruginosa): inactive
LC50 (Artemia salina): 0.63 ppm
MIC (Candida albicans): inactive
MIC (Bacillus subtilis): inactive
Activity (Escherichia coli): inactive
MIC (Micrococcus luteus): inactive

C=C(C)[C@H]1Cc2c(ccc3c2O[C@@H]2COc4cc(OC)c(OC)cc4[C@@H]2C3=O)O1 [ROTENONE]
LC50 (Gambusia affinis): 0.03 ppm
Activity (Pseudomonas aeruginosa): inactive
Activity (Escherichia coli): inactive

O=C1C=CC(=O)C=C1 [BENZOQUINONE]
Activity (Pseudomonas aeruginosa): inactive
MIC (Candida albicans; DSM 1665, 18 h): 25 µg/mL (≈ 231 µM)
MIC (Bacillus subtilis; DSM 347, 18 h): > 50 µg/mL
Activity (Escherichia coli): inactive
MIC (Micrococcus luteus; DSM 348, 18 h): > 50 µg/mL

CC(C)CCCC(C)CCCC(C)CCCC(C)CCCC(C)CCCC(C)CCCC(C)CCCC(C)CCc1cc(O)ccc1O (configuration not stated)
LC50 (Gambusia affinis): > 100 ppm
Activity (Pseudomonas aeruginosa): inactive
LC50 (Artemia salina): > 10 ppm
MIC (Candida albicans): inactive
MIC (Bacillus subtilis): inactive
Activity (Escherichia coli): inactive
MIC (Micrococcus luteus): inactive

CC1=CCC[C@H]2[C@](C)(Cc3cc(O)ccc3O)[C@@H](C)CC[C@]12C [AVAROL]
LC50 (Gambusia affinis): 4.6 ppm
Activity (Pseudomonas aeruginosa): inactive
LC50 (Artemia salina): 0.18 ppm
MIC (Candida albicans): inactive
MIC (Bacillus subtilis; DSM 347, 18 h): > 50 µg/mL
Activity (Escherichia coli): inactive
MIC (Micrococcus luteus; DSM 348, 18 h): > 50 µg/mL

CC(C)=CCC/C(C)=C/Cc1cc(O)ccc1O [GEROQUINOL]
LC50 (Gambusia affinis): 4.6 ppm
Activity (Pseudomonas aeruginosa): inactive
LC50 (Artemia salina): 0.01 ppm
MIC (Candida albicans; DSM 1665, 18 h): 25 µg/mL (≈ 101 µM)
MIC (Bacillus subtilis; DSM 347, 18 h): 6.25 µg/mL (≈ 25.4 µM)
Activity (Escherichia coli): inactive
MIC (Micrococcus luteus; DSM 348, 18 h): 12.5 µg/mL (≈ 50.7 µM)

CC(C)=CCC/C(C)=C/CC/C(C)=C/CC/C(C)=C/CC/C(C)=C/CC/C(C)=C/CC/C(C)=C/Cc1cc(O)ccc1O
LC50 (Gambusia affinis): > 100 ppm
Activity (Pseudomonas aeruginosa): inactive
LC50 (Artemia salina): 0.91 ppm
MIC (Candida albicans): inactive
MIC (Bacillus subtilis): inactive
Activity (Escherichia coli): inactive
MIC (Micrococcus luteus): inactive

CC(C)CCCC(C)CCCC(C)CCCC(C)CCc1cc(O)ccc1O (configuration not stated)
LC50 (Gambusia affinis): 43.6 ppm
Activity (Pseudomonas aeruginosa): inactive
LC50 (Artemia salina): 0.02 ppm
MIC (Candida albicans): inactive
MIC (Bacillus subtilis): inactive
Activity (Escherichia coli): inactive
MIC (Micrococcus luteus): inactive

Oc1ccc(O)cc1 [HYDROQUINONE]
LC50 (Gambusia affinis): 21.5 ppm
Activity (Pseudomonas aeruginosa): inactive
LC50 (Artemia salina): 0.35 ppm
MIC (Candida albicans): inactive
MIC (Bacillus subtilis; DSM 347, 18 h): > 50 µg/mL
Activity (Escherichia coli): inactive
MIC (Micrococcus luteus; DSM 348, 18 h): > 50 µg/mL

Cc1cc(O)ccc1O [METHYLHYDROQUINONE]
LC50 (Gambusia affinis): 38.5 ppm
Activity (Pseudomonas aeruginosa): inactive
LC50 (Artemia salina): > 10 ppm
MIC (Candida albicans; DSM 1665, 18 h): > 50 µg/mL
MIC (Bacillus subtilis; DSM 347, 18 h): 25 µg/mL (≈ 201 µM)
Activity (Escherichia coli): inactive
MIC (Micrococcus luteus; DSM 348, 18 h): > 50 µg/mL
